The values below come from ChEMBL document CHEMBL6114976, “Structure-based design, synthesis and biological evaluation of a novel d-amino acid-containing peptide inhibitor by blocking the RAD51-BRCA2 interaction for the treatment of kidney cancer” (Eur J Med Chem, 2025).

As a reminder, the Kd is the constant that tells how readily two partners part at equilibrium. The term inhibition denotes how much of the control response was suppressed. One may read the half-life as the time in which the quantity being followed falls by half. One may read the IC50 as the concentration needed to halve the response being measured. The Cmax is the peak of the concentration-time curve. A word on the Tmax: it is the time at which the peak concentration occurs. One may read the AUC as the area under the concentration-time curve, a measure of exposure. A higher AUC goes with high exposure.

The target of series [1] is T1, DNA repair protein RAD51 homolog 1 (Homo sapiens, UniProt Q06609).
T1 sequence (Q06609 whole entry): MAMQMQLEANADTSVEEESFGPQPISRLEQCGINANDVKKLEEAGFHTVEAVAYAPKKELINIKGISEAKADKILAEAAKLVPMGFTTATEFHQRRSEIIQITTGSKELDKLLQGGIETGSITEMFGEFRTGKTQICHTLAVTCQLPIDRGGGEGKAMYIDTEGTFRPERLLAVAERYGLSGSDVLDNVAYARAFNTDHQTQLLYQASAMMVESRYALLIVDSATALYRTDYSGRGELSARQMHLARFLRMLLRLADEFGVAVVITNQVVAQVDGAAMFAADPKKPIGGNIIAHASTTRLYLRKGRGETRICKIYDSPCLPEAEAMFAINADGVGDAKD
The series is described as follows: Binding affinity to RAD51 (unknown origin) assessed as dissociation constant by MST assay.

The test system of series [2] is 786-0. Put plainly: Inhibition of cell proliferation of human 786-0 cells at 3 uM incubated for 72 hrs by MTT assay relative to control. It is filed as functional. (Tetrazolium assays rely on reduction of a dye to a coloured formazan, in cell work by metabolically active cells.)
A short description of series [3]: Half life in BALB/c mouse at 10 mg/kg, iv measured for 0.25 to 24 hrs by LC-MS/MS analysis. It is filed as ADME, organism-based. The following applies: in vivo, time 0.25-24 hrs.
In the next series the test system is A498. Put plainly: Inhibition of cell proliferation of human A498 cells incubated for 72 hrs by MTT assay. Format: functional, cell-based. The following applies: A498, 72 h.
Series [4] has as its system 786-0. Put plainly: Antitumor activity against human 786-0 cells xenografted in BALB/c nude mouse assessed as reduction in tumor weight at 10 to 20 mg/kg, iv measured for 21 days. It is filed as functional, organism-based. The following applies: dose 10-20 mg/kg, time 21.0 day.
The subject of the next series is ACHN. Put plainly: Inhibition of cell proliferation of human ACHN cells incubated for 72 hrs by MTT assay. It is filed as functional, cell-based.
The next series relates to CAKI-1. Put plainly: Inhibition of cell proliferation of human CAKI-1 cells incubated for 72 hrs by MTT assay. It is filed as functional, cell-based. The following applies: CAKI-1, 72 h.
Series [5] is described as follows: Toxicity in BALB/c nude mouse xenografted with human 786-0 cells assessed as change in ALT level at 10 to 20 mg/kg, iv measured for 21 days. It is filed as organism-based. The following applies: in vivo, 504 h, dose 10-20 mg/kg, time 21 day. A general note: Xenograft models place foreign cells or tissue in a host animal.
Series [6] is described as follows: Inhibition of cell proliferation of human MCF-10A cells incubated for 72 hrs by MTT assay. It is filed as toxicity, cell-based.
A short description of series [7]: Toxicity in BALB/c nude mouse xenografted with human 786-0 cells assessed as change in AST level at 10 to 20 mg/kg, iv measured for 21 days. It is filed as organism-based. The following applies: in vivo, 504 h, dose 10-20 mg/kg, time 21 day.
In series [8] the test system is 786-0. The series is described as follows: Antitumor activity against human 786-0 cells xenografted in BALB/c nude mouse assessed as reduction in tumor volume at 10 to 20 mg/kg, iv measured for 21 days. The following applies: dose 10-20 mg/kg, time 21.0 day. Format: functional, organism-based.
Series [9] in a line: Cmax in BALB/c mouse at 10 mg/kg, iv measured for 0.25 to 24 hrs by LC-MS/MS analysis. Format: ADME, organism-based. Particulars: in vivo, time 0.25-24 hrs.
The nature of series [10]: Tmax in BALB/c mouse at 10 mg/kg, iv measured for 0.25 to 24 hrs by LC-MS/MS analysis. Format: ADME, organism-based. Particulars: in vivo, time 0.25-24 hrs.
Series [11] can be described thus: Toxicity in BALB/c nude mouse xenografted with human 786-0 cells assessed as body weight change at 10 to 20 mg/kg, iv measured for 21 days. It is filed as organism-based. The following applies: in vivo, 504 h, dose 10-20 mg/kg, time 21 day.
Series [12] deals with 786-0. Put plainly: cells. The following applies: Homo sapiens, 786-0, 72 h.
Description: Inhibition of cell proliferation of human 786-0 cells incubated for 72 hrs by MTT assay
Series [13] in a line: Toxicity in BALB/c nude mouse xenografted with human 786-0 cells assessed as change in CREA level at 10 to 20 mg/kg, iv measured for 21 days. Format: organism-based. The following applies: in vivo, 504 h, dose 10-20 mg/kg, time 21 day.
A short description of series [14]: Inhibition of cell proliferation of human GP2-293 cells incubated for 72 hrs by MTT assay. It is filed as toxicity, cell-based.
Series [15] in a line: Inhibition of cell proliferation of human SNU-349 cells incubated for 72 hrs by MTT assay. It is filed as functional, cell-based. Particulars: SNU-349, 72 h.
A short description of series [16]: Inhibition of cell proliferation of human Hkb20 cells incubated for 72 hrs by MTT assay. It is filed as toxicity, cell-based.
The target in series [17] is T1, DNA repair protein RAD51 homolog 1. Put plainly: Inhibition of RAD51 (unknown origin) in presence of AlexaFluor 488-labeled BRC4 by fluorescence polarization competitive binding assay. Background: Polarisation of emitted light reports the rotation of a fluorescent probe.
The nature of series [18]: Inhibition of cell proliferation of human HK-2 cells incubated for 72 hrs by MTT assay. It is filed as toxicity, cell-based.
Series [19] relates to 786-0. The series is described as follows: Inhibition of HR repair in human 786-0 cells transfected with plasmids upto 640 nM incubated for 5 hrs by real-time PCR assay. It is filed as functional, cell-based.
Series [20] concerns 786-0. The series is described as follows: Induction of DNA damage in human 786-0 cells assessed as increase in gamma-H2AX mRNA level incubated for 48 hrs by qPCR analysis. Format: functional, cell-based. Particulars: dose 100-300 nM.
A short description of series [21]: Stability in mouse serum assessed as compound remaining at 5 uM measured after 360 mins by HPLC analysis. It is filed as ADME, cell-free. Particulars: read-out: Stability.
A short description of series [22]: Toxicity in BALB/c nude mouse xenografted with human 786-0 cells assessed as change in BUN level at 10 to 20 mg/kg, iv measured for 21 days. Format: organism-based. The following applies: in vivo, 504 h, dose 10-20 mg/kg, time 21 day.
For series [23], the system named is 786-0. Put plainly: Antitumor activity against human 786-0 cells xenografted in BALB/c nude mouse assessed as tumor growth inhibition administered intravenously measured for 21 days. It is filed as functional, cell-based. Particulars: dose 10-20 mg/kg, route iv, time 21.0 day.
Series [24] in a line: AUC in BALB/c mouse at 10 mg/kg, iv measured for 0.25 to 24 hrs by LC-MS/MS analysis. Format: ADME, organism-based. The following applies: in vivo, time 0.25-24 hrs.
Series [25] in a line: Stability in mouse serum assessed as compound remaining at 5 uM measured after 180 mins by HPLC analysis. Particulars: 3 h. It is filed as ADME, cell-free.

The source made the active and inactive calls. The rule behind the calls is not given here. Residues, ends and D or L forms follow the SMILES beside them.

Regarding `CC[C@](C)(NC(=O)[C@@H](NC(=O)[C@H](CC(C)C)NC(=O)[C@H](Cc1ccccc1)NC(=O)[C@@H](CO)NC(C)=O)[C@@H](C)O)C(N)=O`, the Kd in [1] came out at 0.128 µM. The compound further had an inhibition at 3 µM with 786-0 [2] of over 60%.

For the compound `CC[C@](C)(NC(=O)[C@@H](NC(=O)[C@H](CC(C)C)NC(=O)[C@H](Cc1c[nH]c2ccccc12)NC(=O)[C@@H](CO)NC(C)=O)C(C)C)C(N)=O`, the Kd in series [1] was 0.0567 µM. In addition, the inhibition at 3 µM with 786-0 [2] was over 60%.

In turn, `CC[C@](C)(NC(=O)[C@@H](NC(=O)[C@H](CC(C)C)NC(=O)[C@H](Cc1c[nH]c2ccccc12)NC(=O)[C@@H](CO)NC(C)=O)[C@@H](C)O)C(N)=O` gave a half-life in series [3] of 7.38 h. Moreover, the IC50 in the series with A498 was determined as 0.68 µM; in the series on ACHN, 0.31 µM; in the series with CAKI-1, 0.51 µM; with 786-0 [12], 0.09 µM; in [15], 0.25 µM; in series [17] it was 0.035 µM. For the same compound, the result with 786-0 [4] and with 786-0 [8] was Active. For the same compound, the Activity result is “Non-toxic” in series [5]; “Non-toxic” in series [7]; “Non-toxic” in series [11]; “Non-toxic” in [13]; “Dose-dependent-effect” in the series with 786-0 [20]; “Non-toxic” in series [22]. In addition, the Activity result in the series with 786-0 [23] was “Dose-dependent-effect”. Besides, the IC50 at 72 h in series [6], in series [14], in series [16] and in series [18] was over 10 µM throughout. Also, the Cmax in series [9] amounted to 6.47 µg/mL. In addition, the Tmax in series [10] is 0.29 h. For the same compound, in [1], the Kd stood at 0.00924 µM. Also, the inhibition result with 786-0 [19] is “Dose-dependent-effect”. The remaining at 6 h, 5 µM in [21] was 85%. In series [24], the AUC was 13 µg·h/mL. The compound also yielded an inhibition at 3 µM in the series on 786-0 [2] of over 90%.

`CC[C@H](C)[C@H](NC(=O)[C@H](CCCCN)NC(=O)[C@@H](NC(=O)[C@H](CCCCN)NC(=O)[C@H](CCCCN)NC(=O)CNC(=O)[C@H](CO)NC(=O)[C@H](C)NC(=O)[C@@H](NC(=O)[C@H](Cc1c[nH]cn1)NC(=O)[C@H](Cc1ccccc1)NC(=O)CNC(=O)[C@H](CC(C)C)NC(=O)[C@H](CC(C)C)NC(C)=O)[C@@H](C)O)C(C)C)C(=O)N[C@@H](C)C(=O)N[C@@H](CCCCN)C(N)=O` (Ac-LLGFHTASGKKVKIAK-NH2) yielded an IC50 in the series with 786-0 [12] of over 10 µM. For the same compound, the Stability result in series [25] was “Unstable”. Moreover, the Kd in series [1] was determined as 0.602 µM.

On to `CC(=O)N[C@H](CO)C(=O)N[C@@H](Cc1ccccc1)C(=O)N[C@@H](CC(C)C)C(=O)N[C@H](C(=O)N[C@@H](C)C(N)=O)C(C)C`, for which, in [1], the dissociation constant (Kd) amounted to 0.145 µM. Moreover, the inhibition at 3 µM with 786-0 [2] was over 60%.

On to `CC[C@](C)(NC(=O)[C@@H](NC(=O)[C@H](C)NC(=O)[C@H](Cc1c[nH]c2ccccc12)NC(=O)[C@@H](CO)NC(C)=O)[C@@H](C)O)C(N)=O`, for which the Kd in series [1] was 0.0401 µM. In addition, in the series on 786-0 [2], the inhibition at 3 µM was over 60%.

Take `CC[C@](C)(NC(=O)[C@@H](NC(=O)[C@H](CC(C)C)NC(=O)[C@H](Cc1c[nH]c2ccccc12)NC(=O)[C@H](CO)NC(C)=O)[C@@H](C)O)C(N)=O`: the Kd in series [1] was found to be 0.236 µM. In addition, the inhibition at 3 µM with 786-0 [2] is over 60%.
